Data: PubChem BioAssay AID2060607 (Molecular Pharmacology Branch, DTP, NCI, 2025)

System: 876862-298-R-J1-PDC complex spheroids, viability % test/control
Assay: Anticancer human tumor 876862-298-R-J1-PDC patient-derived endometrial carcinoma cell line growth inhibition [CLK]
Settings: for IC50: curve of first compound; for viability, T/C: stronger effect = lower value
Method in brief: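 Patient-derived tumor cells grown as complex spheroids with HUVEC endothelial cells and mesenchymal stem cells, treated with drug combinations. Concentrations descend in half-log steps from near clinical Cmax, or from 10 microM if Cmax unknown.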

[1] = second compound 0.0316 µM, first compound 0.0316 µM
[2] = second compound 0.0316 µM, first compound 0.1 µM
[3] = second compound 0.0316 µM, first compound 0.316 µM
[4] = second compound 0.0316 µM, first compound 1 µM
[5] = second compound 0.0316 µM, first compound 3.16 µM
[6] = second compound 0.0316 µM, first compound 10 µM
[7] = second compound 0.1 µM, first compound 0.0316 µM
[8] = second compound 0.1 µM, first compound 0.1 µM
[9] = second compound 0.1 µM, first compound 0.316 µM
[10] = second compound 0.1 µM, first compound 1 µM
[11] = second compound 0.1 µM, first compound 3.16 µM
[12] = second compound 0.1 µM, first compound 10 µM
[13] = second compound 0.316 µM, first compound 0.0316 µM
[14] = second compound 0.316 µM, first compound 0.1 µM
[15] = second compound 0.316 µM, first compound 0.316 µM
[16] = second compound 0.316 µM, first compound 1 µM
[17] = second compound 0.316 µM, first compound 3.16 µM
[18] = second compound 0.316 µM, first compound 10 µM
[19] = second compound 1 µM, first compound 0.0316 µM
[20] = second compound 1 µM, first compound 0.1 µM
[21] = second compound 1 µM, first compound 0.316 µM
[22] = second compound 1 µM, first compound 1 µM
[23] = second compound 1 µM, first compound 3.16 µM
[24] = second compound 1 µM, first compound 10 µM
[25] = second compound 3.16 µM, first compound 0.0316 µM
[26] = second compound 3.16 µM, first compound 0.1 µM
[27] = second compound 3.16 µM, first compound 0.316 µM
[28] = second compound 3.16 µM, first compound 1 µM
[29] = second compound 3.16 µM, first compound 3.16 µM
[30] = second compound 3.16 µM, first compound 10 µM
[31] = second compound 10 µM, first compound 0.0316 µM
[32] = second compound 10 µM, first compound 0.1 µM
[33] = second compound 10 µM, first compound 0.316 µM
[34] = second compound 10 µM, first compound 1 µM
[35] = second compound 10 µM, first compound 3.16 µM
[36] = second compound 10 µM, first compound 10 µM
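Note: spheroids exposed to drugs for 7 days before readout.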
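Throughout, for viability, T/C: 100% = DMSO vehicle control wells.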

## CC(C)CC(NC(=O)C(Cc1ccccc1)NC(=O)c1cnccn1)B(O)O (stereo unspecified) + CN1CCN(c2cc(C(=O)Nc3cc4cc(-c5cnn(C)c5)ccc4cn3)ccn2)CC1
Second compound 0.0316 µM
  IC50: 1.77 nM
Second compound 0.1 µM
  IC50: 0.97 nM
Second compound 0.316 µM
  IC50: < 0.949 nM
Second compound 1 µM
  IC50: < 0.949 nM
Second compound 3.16 µM
  IC50: < 0.949 nM
Second compound 10 µM
  IC50: < 0.949 nM
Second compound 0.0316 µM, first compound 0.000949 µM
  viability, T/C: 92.9%
Second compound 0.0316 µM, first compound 0.003 µM
  viability, T/C: 13.8%
Second compound 0.0316 µM, first compound 0.00949 µM
  viability, T/C: 1.49%
Second compound 0.0316 µM, first compound 0.03 µM
  viability, T/C: 0.54%
Second compound 0.0316 µM, first compound 0.0949 µM
  viability, T/C: 0.87%
Second compound 0.0316 µM, first compound 0.3 µM
  viability, T/C: 0.26%
Second compound 0.1 µM, first compound 0.000949 µM
  viability, T/C: 50.9%
Second compound 0.1 µM, first compound 0.003 µM
  viability, T/C: 9.76%
Second compound 0.1 µM, first compound 0.00949 µM
  viability, T/C: 0.72%
Second compound 0.1 µM, first compound 0.03 µM
  viability, T/C: 0.44%
Second compound 0.1 µM, first compound 0.0949 µM
  viability, T/C: 0.43%
Second compound 0.1 µM, first compound 0.3 µM
  viability, T/C: 0.26%
Second compound 0.316 µM, first compound 0.000949 µM
  viability, T/C: 2.77%
Second compound 0.316 µM, first compound 0.003 µM
  viability, T/C: 0.46%
Second compound 0.316 µM, first compound 0.00949 µM
  viability, T/C: 1.45%
Second compound 0.316 µM, first compound 0.03 µM
  viability, T/C: 0.39%
Second compound 0.316 µM, first compound 0.0949 µM
  viability, T/C: 0.5%
Second compound 0.316 µM, first compound 0.3 µM
  viability, T/C: 0.26%
Second compound 1 µM, first compound 0.000949 µM
  viability, T/C: 0.6%
Second compound 1 µM, first compound 0.003 µM
  viability, T/C: 0.27%
Second compound 1 µM, first compound 0.00949 µM
  viability, T/C: 0.45%
Second compound 1 µM, first compound 0.03 µM
  viability, T/C: 0.53%
Second compound 1 µM, first compound 0.0949 µM
  viability, T/C: 0.45%
Second compound 1 µM, first compound 0.3 µM
  viability, T/C: 0.57%
Second compound 3.16 µM, first compound 0.000949 µM
  viability, T/C: 1.3%
Second compound 3.16 µM, first compound 0.003 µM
  viability, T/C: 0.5%
Second compound 3.16 µM, first compound 0.00949 µM
  viability, T/C: 0.68%
Second compound 3.16 µM, first compound 0.03 µM
  viability, T/C: 0.95%
Second compound 3.16 µM, first compound 0.0949 µM
  viability, T/C: 0.69%
Second compound 3.16 µM, first compound 0.3 µM
  viability, T/C: 0.43%
Second compound 10 µM, first compound 0.000949 µM
  viability, T/C: 0.67%
Second compound 10 µM, first compound 0.003 µM
  viability, T/C: 0.32%
Second compound 10 µM, first compound 0.00949 µM
  viability, T/C: 1.9%
Second compound 10 µM, first compound 0.03 µM
  viability, T/C: 0.44%
Second compound 10 µM, first compound 0.0949 µM
  viability, T/C: 0.42%
Second compound 10 µM, first compound 0.3 µM
  viability, T/C: 0.27%

## CC1COCCN1c1cc(C2(S(C)(=N)=O)CC2)nc(-c2ccnc3[nH]ccc23)n1 (stereo unspecified) + CN1CCN(c2cc(C(=O)Nc3cc4cc(-c5cnn(C)c5)ccc4cn3)ccn2)CC1
Second compound 0.0316 µM
  IC50: 2100 nM
Second compound 0.1 µM
  IC50: < 31.6 nM
Second compound 0.316 µM
  IC50: < 31.6 nM
Second compound 1 µM
  IC50: < 31.6 nM
Second compound 3.16 µM
  IC50: < 31.6 nM
Second compound 10 µM
  IC50: < 31.6 nM
[1]
  viability, T/C: 89.1%
[2]
  viability, T/C: 87.5%
[3]
  viability, T/C: 76.5%
[4]
  viability, T/C: 62.1%
[5]
  viability, T/C: 43.6%
[6]
  viability, T/C: 17.9%
[7]
  viability, T/C: 45.1%
[8]
  viability, T/C: 51.9%
[9]
  viability, T/C: 38.9%
[10]
  viability, T/C: 33.6%
[11]
  viability, T/C: 18.4%
[12]
  viability, T/C: 7.47%
[13]
  viability, T/C: 2.43%
[14]
  viability, T/C: 2.03%
[15]
  viability, T/C: 2.19%
[16]
  viability, T/C: 2.32%
[17]
  viability, T/C: 2.12%
[18]
  viability, T/C: 1.33%
[19]
  viability, T/C: 0.64%
[20]
  viability, T/C: 0.83%
[21]
  viability, T/C: 0.8%
[22]
  viability, T/C: 0.51%
[23]
  viability, T/C: 0.47%
[24]
  viability, T/C: 0.27%
[25]
  viability, T/C: 0.98%
[26]
  viability, T/C: 1.82%
[27]
  viability, T/C: 0.92%
[28]
  viability, T/C: 0.81%
[29]
  viability, T/C: 0.61%
[30]
  viability, T/C: 0.4%
[31]
  viability, T/C: 0.94%
[32]
  viability, T/C: 0.66%
[33]
  viability, T/C: 1.4%
[34]
  viability, T/C: 0.63%
[35]
  viability, T/C: 0.59%
[36]
  viability, T/C: 0.74%

## O=C(c1cc(Cc2n[nH]c(=O)c3ccccc23)ccc1F)N1CCN(C(=O)C2CC2)CC1 + CN1CCN(c2cc(C(=O)Nc3cc4cc(-c5cnn(C)c5)ccc4cn3)ccn2)CC1
Second compound 0.0316 µM
  IC50: > 10000 nM
Second compound 0.1 µM
  IC50: 633 nM
Second compound 0.316 µM
  IC50: < 31.6 nM
Second compound 1 µM
  IC50: < 31.6 nM
Second compound 3.16 µM
  IC50: < 31.6 nM
Second compound 10 µM
  IC50: < 31.6 nM
[1]
  viability, T/C: 88.1%
[2]
  viability, T/C: 95.5%
[3]
  viability, T/C: 85.7%
[4]
  viability, T/C: 94.9%
[5]
  viability, T/C: 96.2%
[6]
  viability, T/C: 74.6%
[7]
  viability, T/C: 51.3%
[8]
  viability, T/C: 50.5%
[9]
  viability, T/C: 50.9%
[10]
  viability, T/C: 50.6%
[11]
  viability, T/C: 45%
[12]
  viability, T/C: 35.2%
[13]
  viability, T/C: 2.72%
[14]
  viability, T/C: 3.01%
[15]
  viability, T/C: 2.89%
[16]
  viability, T/C: 3.34%
[17]
  viability, T/C: 3.07%
[18]
  viability, T/C: 2.03%
[19]
  viability, T/C: 0.78%
[20]
  viability, T/C: 1.06%
[21]
  viability, T/C: 0.79%
[22]
  viability, T/C: 0.54%
[23]
  viability, T/C: 0.67%
[24]
  viability, T/C: 0.77%
[25]
  viability, T/C: 1.02%
[26]
  viability, T/C: 0.99%
[27]
  viability, T/C: 1.13%
[28]
  viability, T/C: 1.07%
[29]
  viability, T/C: 2.34%
[30]
  viability, T/C: 1.07%
[31]
  viability, T/C: 0.83%
[32]
  viability, T/C: 0.87%
[33]
  viability, T/C: 0.89%
[34]
  viability, T/C: 1.19%
[35]
  viability, T/C: 1.06%
[36]
  viability, T/C: 0.83%
